Data set [1] can be described thus: Particle characteristics of LNPs containing EGFP mRNA and novel ionizable lipids. It counts as physicochemical. As to conditions: EGFP mRNA LNP 1.6:54.6:32.8:10.9. As for the experimental part: The lipid solution contains 4 components: a PEG-conjugated lipid, an ionizable lipid, cholesterol, and a phospholipid (e.g., DSPC). Lipid stocks were prepared using the lipid identities and molar ratios as described, to achieve a total concentration of ˜7 mg/mL in 100% ethanol. […] Equal volumes of the lipid and nucleic acid solutions were blended at a flow rate of 400 mL/min through a T-connector, and diluted with ˜4 volumes of PBS, pH 7.4. Formulations were placed in Slide-A-Lyzer dialysis units (MWCO 10,000) and dialyzed overnight against 10 mM Tris, 500 mM NaCl, pH 8 buffer. Following dialysis, the formulations were concentrated to ˜0.6 mg/mL using VivaSpin concentrator units (MWCO 100,000) and dialyzed overnight against 5 mM Tris, 10% sucrose, pH 8 buffer. Formulations were filtered through a 0.2 μm syringe filter (PES membrane). Nucleic acid concentration was determined by the RiboGreen assay. Particle size and polydispersity were determined using a Malvern Nano Series Zetasizer.
LNP formulations containing novel ionizable lipids all produced stable particles with high encapsulation efficiency (Tables 20-23).

In data set [2] the test system is EGFP expression in the liver. As to the kind of experiment: EGFP expression in liver after intravenous EGFP mRNA LNP (ELISA). As to conditions: 0.5 mg/kg IV, 24 h post-IV administration, BALB/c mice (n = 4). In general terms: An ELISA detects its analyte on a solid surface through an enzyme-linked reagent.
Data set [3] in a line: Parent ionizable lipid remaining in liver at 24 h after EGFP mRNA LNP (LC-MS). It counts as in vivo. As to conditions: 24 h after IV 0.5 mg/kg EGFP mRNA LNP, female BALB/c mice (n = 4). As for the experimental part:
Liver tissues were treated with PBS and homogenized with a FastPrep machine, 3 cycles of 5 m/s×15 s. Homogenates from the PBS-treated control animals was pooled and used for standard curve preparation. Samples were extracted into a deep well plate with 250 μL of an internal suitability standard. Plates were centrifuged for 15 min at 4° C. and 2000 rpm. Analysis was performed using an Agilent 6520 QTOF coupled to an Agilent 1290 UHPLC, using reverse-phase LC separation. Quantitation of the ionizable lipid was by MS/MS against a calibration curve spiked into appropriately matched blank matrix. Calibration used a similar class of synthetic lipid as internal standard.
At 24 h post-dose, some treatment groups reported lower levels of novel ionizable lipid in mouse liver compared to the benchmark (Tables 28-31).

Consider 16 molecules from patent US20250332112A1, “IONIZABLE CATIONIC LIPIDS FOR LIPID NANOPARTICLES” (GENEVANT SCIENCES GMBH, priority 2022, published 2025).

Molecules are shown by their SMILES.

For the molecule `CCCCCCCCCCC(CCCCCCC(=O)OCCC(CCCCC)CCCCC)N(CCCCCCCCCC)C(=O)CCCCN1CCCC1` (centres unmarked) [Compound 89, 3-Pentyloctyl 8-(N-decyl-5-(pyrrolidin-1-yl)pentanamido)octadecanoate], in data set [1] (Table 20), the “Final Product % EE” value stood at 99%, the “Final Product PDI” value stood at 0.03 and the “Final Product Z-avg” value came to 83 nm. For the same molecule, the EGFP in data set [2] (Table 24) is recorded as 2.01E+07 pg/g liver. In addition, in data set [3] (Table 28), the “Parent ionizable lipid remaining in liver, Average” value (“Parent ionizable lipid remaining” below) came to 4.32 nmol/g liver.
For the molecule `CCCCCCCCCCC(CCCCCCC(=O)OCCC(CCCCCC)CCCCCC)N(CCCCCCCCCC)C(=O)CCCCN1CCCC1` (centres unmarked) [Compound 90, 3-Hexylnonyl 8-(N-decyl-5-(pyrrolidin-1-yl)pentanamido)octadecanoate], in data set [1] (Table 20), the “Final Product % EE” value was 99%, the “Final Product PDI” value is listed as 0.07 and the “Final Product Z-avg” value is reported as 79 nm. The EGFP in data set [2] (Table 24) stood at 2.12E+07 pg/g liver. Moreover, the “Parent ionizable lipid remaining” value in data set [3] (Table 28) is listed as 13.37 nmol/g liver.
Turning to `CCCCCCCCCCC(CCCCCCC(=O)OCCC(CCCCCCC)CCCCCCC)N(CCCCCCCCCC)C(=O)CCCCN1CCCC1` (centres unmarked) [Compound 91, 3-Heptyldecyl 8-(N-decyl-5-(pyrrolidin-1-yl)pentanamido)octadecanoate], in data set [1] (Table 20), the “Final Product % EE” value is recorded as 99%, the “Final Product PDI” value amounted to 0.03 and the “Final Product Z-avg” value stood at 85 nm. The EGFP in data set [2] (Table 24) was found to be 3.15E+07 pg/g liver. Further, in data set [3] (Table 28), the “Parent ionizable lipid remaining” value amounted to 18.58 nmol/g liver.
`CCCCCCCCCCN(C(=O)CCCN(C)C)C(CCCCCCCCC)CCCCCCC(F)(F)C(=O)OC(CCCCCC)CCCCCC` (centres unmarked) [Compound 92, Tridecan-7-yl 9-(N-decyl-4-(dimethylamino)butanamido)-2,2-difluorooctadecanoate]: in data set [1] (Table 21), the “Final Product % EE” value is reported as 99%, the “Final Product PDI” value is listed as 0.09 and the “Final Product Z-avg” value is 71 nm. The same molecule showed an EGFP in data set [2] (Table 25) of 6.34E+05 pg/g liver. The “Parent ionizable lipid remaining” value in data set [3] (Table 29) is recorded as 8.83 nmol/g liver.
For the molecule `CCCCCCCCCCN(C(=O)CCCN(C)C)C(CCCCCCCCC)CCCCCCC(F)(F)C(=O)OC(CCCCCCC)CCCCCCC` (centres unmarked) [Compound 93, Pentadecan-8-yl 9-(N-decyl-4-(dimethylamino)butanamido)-2,2-difluorooctadecanoate], in data set [1] (Table 21), the “Final Product % EE” value is reported as 98%, the “Final Product PDI” value is 0.02 and the “Final Product Z-avg” value is recorded as 69 nm. The same molecule had an EGFP in data set [2] (Table 25) of 1.77E+05 pg/g liver. For the same molecule, in data set [3] (Table 29), the “Parent ionizable lipid remaining” value came out at 24.61 nmol/g liver.
In the same order, the values of `CCCCCC/C=C\CCON(C(=O)CCCCN(C)C)C(CCCCCCCCCC)CCCCCCC(=O)OCCC(CCCCC)CCCCC` (centres unmarked) [Compound 94, 3-Pentyloctyl (Z)-8-(N-(dec-3-en-1-yloxy)-5-(dimethylamino)pentanamido)octadecanoate] are 98%, 0.06, 83 nm, 1.20E+06 pg/g liver and 6.57 nmol/g liver.
As to `CCCCCCCCCCON(C(=O)CCCCN(C)C)C(CCCCCCCCCC)CCCCCCC(=O)OCCC(CCCCC)CCCCC` (centres unmarked) [Compound 95, 3-Pentyloctyl 8-(N-(decyloxy)-5-(dimethylamino)pentanamido)octadecanoate], in data set [1] (Table 21), the “Final Product % EE” value came out at 96%, the “Final Product PDI” value worked out at 0.08 and the “Final Product Z-avg” value turned out to be 80 nm. For the same molecule, the EGFP in data set [2] (Table 25) is 8.76E+05 pg/g liver. Also, the “Parent ionizable lipid remaining” value in data set [3] (Table 29) worked out at 9.44 nmol/g liver.
`CCCCCCCCCCON(C(=O)CCCCN(C)C)C(CCCCCCCCCC)CCCCCCC(=O)OCCC(CCCCCC)CCCCCC` (centres unmarked) [Compound 97, 3-Hexylnonyl 8-(N-(decyloxy)-5-(dimethylamino)pentanamido)octadecanoate]: in data set [1] (Table 21), the “Final Product % EE” value came to 99%, the “Final Product PDI” value amounted to 0.07 and the “Final Product Z-avg” value is given as 85 nm. This molecule also came in with an EGFP in data set [2] (Table 25) of 1.48E+06 pg/g liver. In data set [3] (Table 29), the “Parent ionizable lipid remaining” value is 19.31 nmol/g liver.
Consider `CCCCCC/C=C\CCON(C(=O)CCCCN(C)C)C(CCCCCCCCCC)CCCCCCC(=O)OCCC(CCCCCCC)CCCCCCC` (centres unmarked) [Compound 98, 3-Heptyldecyl (Z)-8-(N-(dec-3-en-1-yloxy)-5-(dimethylamino)pentanamido)octadecanoate], for which, in data set [1] (Table 21), the “Final Product % EE” value came out at 99%, the “Final Product PDI” value came to 0.06 and the “Final Product Z-avg” value was determined as 84 nm. The molecule also had an EGFP in data set [2] (Table 25) of 9.76E+05 pg/g liver. Moreover, the “Parent ionizable lipid remaining” value in data set [3] (Table 29) is on record as 30.21 nmol/g liver.
In the same order, the values of `CCCCCCCCCCON(C(=O)CCCCN(C)C)C(CCCCCCCCCC)CCCCCCC(=O)OCCC(CCCCCCC)CCCCCCC` (centres unmarked) [Compound 99, 3-Heptyldecyl 8-(N-(decyloxy)-5-(dimethylamino)pentanamido)octadecanoate] are 97%, 0.04, 86 nm, 1.05E+06 pg/g liver and 19.93 nmol/g liver.
The matching figures for `CCCCCC/C=C\CCON(C(=O)CCCN(C)C)C(CCCCCCCCCC)CCCCCCC(=O)OCCC(CCCCC)CCCCC` (centres unmarked) [Compound 100, 3-Pentyloctyl (Z)-8-(N-(dec-3-en-1-yloxy)-4-(dimethylamino)butanamido)octadecanoate]: 98%, 0.08, 72 nm, 5.98E+05 pg/g liver and 5.03 nmol/g liver.
The matching figures for `CCCCCCCCCCN(C(=O)CCCN(C)C)C(CCCCCCCCC)CCCCC(F)(F)C(=O)OCC(CCCCCC)CCCCCCCC` (centres unmarked) [Compound 102, 2-Hexyldecyl 7-(N-decyl-4-(dimethylamino)butanamido)-2,2-difluorohexadecanoate]: 98%, 0.09, 67 nm, 1.94E+05 pg/g liver and 5.72 nmol/g liver.
For `CCCCCCCCCCN(C(=O)CCCN(C)C)C(CCCCCCCCC)CCCCC(F)(F)C(=O)OCCC(CCCCCC)CCCCCC` (centres unmarked) [Compound 103, 3-Hexylnonyl 7-(N-decyl-4-(dimethylamino)butanamido)-2,2-difluorohexadecanoate], in data set [1] (Table 21), the “Final Product % EE” value was 98%, the “Final Product PDI” value amounted to 0.09 and the “Final Product Z-avg” value is 67 nm. Further, the EGFP in data set [2] (Table 25) is reported as 9.54E+04 pg/g liver. Moreover, the “Parent ionizable lipid remaining” value in data set [3] (Table 29) was found to be 0.00 nmol/g liver.
On to `CCCCCCCCCCN(C(=O)CCCN(C)C)C(CCCCCCCCC)CCCCCCC(F)(F)C(=O)OC(CCCCCCCC)CCCCCCCC` (centres unmarked) [Compound 104, Heptadecan-9-yl 9-(N-decyl-4-(dimethylamino)butanamido)-2,2-difluorooctadecanoate], for which, in data set [1] (Table 22), the “Final Product % EE” value was 99%, the “Final Product PDI” value was found to be 0.07 and the “Final Product Z-avg” value is listed as 74 nm. This molecule also gave an EGFP in data set [2] (Table 26) of 7.36E+06 pg/g liver. In addition, the “Parent ionizable lipid remaining” value in data set [3] (Table 30) is recorded as 51.14 nmol/g liver.
The matching figures for `CCCCCCCCCCC(CCCCCCC(=O)OCCC(CCCCCC)CCCCCC)N(CCCCCCCCCC)C(=O)OCCCN(C)C` (centres unmarked) [Compound 105, 3-hexylnonyl 8-(decyl((3-(dimethylamino)propoxy)carbonyl)-amino) octadecanoate]: 97%, 0.08, 82 nm, 1.86E+07 pg/g liver and 18.96 nmol/g liver.
With `CCCCCCCCCCON(C(=O)CCCN(C)C)C(CCCCCCCCCC)CCCCCCC(F)(F)C(=O)OC(CCCCCCC)CCCCCCC` (centres unmarked) [Compound 106, Pentadecan-8-yl 9-(N-(decyloxy)-4-(dimethylamino)butanamido)-2,2-difluoro-nonadecanoate], in data set [1] (Table 22), the “Final Product % EE” value amounted to 95%, the “Final Product PDI” value is given as 0.13 and the “Final Product Z-avg” value amounted to 73 nm. In data set [2] (Table 26), the EGFP amounted to 2.45E+07 pg/g liver. In addition, the “Parent ionizable lipid remaining” value in data set [3] (Table 30) is 56.97 nmol/g liver.
